The values that follow come from patent publication US6673555B1, “Methods of using SCAP antagonists” (SmithKline Beecham Corporation, priority 1999, dated 2004).

The test system of one assay is HepG2 cells. Put plainly: Uptake of Dil-LDL by HepG2 cells. Conditions: 10 μM, 24 hours, Dil-LDL 6 μg/ml for last 4 hours, FIG. 5. In kind it is cell-based. On the procedure:
To determine if activation of LDL-receptor promoter also translated into an increase in functional LDL receptors, an LDL uptake assay was set up. HepG2 cells seeded at 8 10^4 cells per 8 well Biocoat slides (Beckton Dickinson) were treated with SCAP antagonist or 25OH-cholesterol for 20h and then incubated with 6 μg/ml of fluorescent Dil-LDL for 4 hours. The amount of fluorescent dye that accumulated in the lysosomes was quantified by fluorescence microscopy using Axioplan-2 Zeiss microscope equipped with DXC950P video camera (Sony) and red fluorescence filters.
HepG2 cells were treated for 24 hours in the presence of 0.5 μM Example 1 or 10 μM 25OH-cholesterol. Dil-LDL (6 μg/ml) were added 4 hours before the end of the incubation. Cells were washed and observed by fluorescence microscopy using rhodamine filters and video camera with fixed settings.

Assay [1] concerns human LDL-receptor promoter. Put plainly: LDL-receptor promoter luciferase reporter assay in transfected HepG2 cells. Format: cell-based. From the text:
The human LDL-receptor promoter named p-588 corresponding to nucleotide −588 to +91 relative to the major transcription site was cloned by PCR from human genomic DNA (Clonetech) using SEQ ID NO: 3 […] and SEQ ID NO: 4 […] primers. and inserted into pGL3-basic vector (Promega) at Hind-III and Nco-I sites. The sequencing was identical to published promoter (Genbank L29401). Shorter promoters were obtained by PCR sub-cloning using Kpn-I and Nar-I sites. The primer SEQ ID NO: 5 […] corresponding to luciferase coding sequence was used as reverse primer for all constructs. The following primers were used to produce respectively p-149, p-118, p-70, p-53 and p-31 promoters: SEQ ID NO: 6 […], SEQ ID NO: 7 […], SEQ ID NO: 8 […], SEQ ID NO: 9 […] and SEQ ID NO: 10 […]. A vector containing the 38 bp of the minimal promoter of adenovirus Major Late Promoter (Ham. J. et al., EMBO, 10: 2931-2940 (1991)) was produced using Bgl-II and Hind-III site in pGL3-basic. Four repeats of the SRE sequence present on the human LDL-receptor promoter were introduced in p-MLP vector using Bgl-II site, SEQ ID NO: 11 […] and complementary oligo. HepG2 cells seeded the previous day at 3 10^5 cells per well of 24 well plate were transfected with 1 μg of LDL-promoter containing vector together with p-RL-TK control vector (Promega) using Fugene 6 (Boehringer). HepG2 cells were incubated for 28 hours in the presence of SCAP antagonist and/or 25OH-cholesterol. Firefly luciferase and Renila activity were measured using Dual Luciferase Assay Kit (Promega) and Lumistar (BMG). The ratio of Firefly luciferase to Renila were used to calculate mean and S.D. of tetraplicates.
A vector containing the human LDL-receptor promoter coupled to Firefly luciferase reporter was made. A mixture of the LDL-receptor vector and control pRL-TK vector was used to transfect HepG2 cells. Cells were incubated with 25OH-cholesterol (0.2 or 1 μM) alone or in the presence (black bars) or absence (gray bars) of Example 1 (1 μM) for 28 hours before measurement of luciferase and renila activity. The ratio of luciferase activity versus renila activity was calculated and the mean and SD of triplicates were expressed as percent of control.
Shortening the LDL-receptor promoter in the same reporter vector modifies the relative luciferase activity (FIG. 3A).
(A reporter such as luciferase makes a cellular process visible.)

For the next assay, the target named is T1, full length hamster SCAP (Cricetulus griseus, UniProt P97260).
T1 construct: recombinant baculovirus encoding for full length hamster SCAP containing a T7 tag; expressed in transfected cells; host or cells: Sf-9 insect cells infected with recombinant baculovirus (pTen12 transfer vector)
T1 sequence (P97260 1-1276): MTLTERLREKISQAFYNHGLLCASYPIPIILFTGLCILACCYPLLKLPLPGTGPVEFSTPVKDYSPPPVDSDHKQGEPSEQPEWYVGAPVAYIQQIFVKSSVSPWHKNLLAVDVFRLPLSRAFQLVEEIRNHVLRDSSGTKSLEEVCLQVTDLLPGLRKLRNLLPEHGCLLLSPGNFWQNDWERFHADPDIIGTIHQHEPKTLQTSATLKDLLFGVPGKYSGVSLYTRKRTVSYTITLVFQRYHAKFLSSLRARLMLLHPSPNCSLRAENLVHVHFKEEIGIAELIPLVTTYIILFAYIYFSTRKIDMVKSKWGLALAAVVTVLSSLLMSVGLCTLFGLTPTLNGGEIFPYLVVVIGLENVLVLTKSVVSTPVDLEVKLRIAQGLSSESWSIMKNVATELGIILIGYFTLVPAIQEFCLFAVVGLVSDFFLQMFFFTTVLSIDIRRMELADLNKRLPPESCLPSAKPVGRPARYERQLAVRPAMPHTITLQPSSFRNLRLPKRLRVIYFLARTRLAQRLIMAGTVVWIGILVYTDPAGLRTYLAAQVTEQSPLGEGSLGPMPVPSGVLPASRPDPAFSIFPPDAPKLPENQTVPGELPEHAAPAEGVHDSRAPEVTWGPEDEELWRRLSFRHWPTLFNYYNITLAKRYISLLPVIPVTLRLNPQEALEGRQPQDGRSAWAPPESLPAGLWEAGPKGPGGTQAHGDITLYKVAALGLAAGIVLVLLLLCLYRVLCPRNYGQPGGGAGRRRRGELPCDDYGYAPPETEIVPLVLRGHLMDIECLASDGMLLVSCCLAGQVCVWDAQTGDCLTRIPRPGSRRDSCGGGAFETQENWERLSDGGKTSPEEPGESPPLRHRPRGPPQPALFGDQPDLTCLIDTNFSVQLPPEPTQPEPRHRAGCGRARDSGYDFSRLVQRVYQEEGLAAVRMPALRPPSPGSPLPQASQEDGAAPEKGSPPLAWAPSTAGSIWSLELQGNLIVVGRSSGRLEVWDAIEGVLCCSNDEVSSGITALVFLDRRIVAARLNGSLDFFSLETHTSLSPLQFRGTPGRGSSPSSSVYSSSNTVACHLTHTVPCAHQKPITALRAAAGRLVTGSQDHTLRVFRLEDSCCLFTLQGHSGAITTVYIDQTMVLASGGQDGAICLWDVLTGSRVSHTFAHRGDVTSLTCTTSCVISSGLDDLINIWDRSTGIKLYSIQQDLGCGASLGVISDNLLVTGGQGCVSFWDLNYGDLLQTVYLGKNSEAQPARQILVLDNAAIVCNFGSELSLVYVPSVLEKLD
Put plainly: Photo-affinity labelling / competition binding on full length SCAP in infected Sf-9 cells. How it is done: Hamster SCAP cDNA was cut from pTK-HSV-SCAP-T7 using BgIII and Xbal and re-cloned in pTen 12 transfer vector. Recombinant baculovirus clones were produced by Quantum Biotechnologies Inc. and screened by western blots using T7-tag antibodies on Sf-9 infected cells. Sf-9 cells were grown in CCM-3 medium at 28° C. and seeded at 8×10^6 cells per 75 cm^2 flask. Four hours later they were infected with 200×10^6 pfu of baculovirus and incubated 3 days before harvest. […]
Infected Sf-9 cells were harvested, washed in Dulbecco phosphate buffered saline and 2×10^5 cells were incubated with test compounds and the control (^14C radio-labeled Example 2 ) for 30 min at 28° C. in 24 well plates. […] The radioactivity was detected using a Phosporlmager screen (Molecular Dynamics).
Sf-9 insect cells were infected with recombinant baculovirus encoding for full length hamster SCAP containing a T7 tag (FIG. 1A). Total protein (10 μg) from control cells (lanes b, d) or infected cells (lanes a, c) were analyzed by SDS-PAGE and either stained using Coomassie blue (lanes a, b) or blotted on nitrocellulose membrane following immuno-detection with T7 tag monoclonal antibody (lanes c, d). […] The gel was dried and radioactivity detected using Phosphor Imager Screen.

For assay [2], the target named is T2, truncated form of SCAP corresponding to amino acid 2 to 473 (Cricetulus griseus, UniProt P97260).
T2 construct: a truncated form of SCAP corresponding to amino acid 2 to 473; expressed in transfected cells; host or cells: Sf-9 insect cells infected with recombinant baculovirus (Gateway pDest10 bacmid); membranes analysed
T2 sequence (P97260 2-473): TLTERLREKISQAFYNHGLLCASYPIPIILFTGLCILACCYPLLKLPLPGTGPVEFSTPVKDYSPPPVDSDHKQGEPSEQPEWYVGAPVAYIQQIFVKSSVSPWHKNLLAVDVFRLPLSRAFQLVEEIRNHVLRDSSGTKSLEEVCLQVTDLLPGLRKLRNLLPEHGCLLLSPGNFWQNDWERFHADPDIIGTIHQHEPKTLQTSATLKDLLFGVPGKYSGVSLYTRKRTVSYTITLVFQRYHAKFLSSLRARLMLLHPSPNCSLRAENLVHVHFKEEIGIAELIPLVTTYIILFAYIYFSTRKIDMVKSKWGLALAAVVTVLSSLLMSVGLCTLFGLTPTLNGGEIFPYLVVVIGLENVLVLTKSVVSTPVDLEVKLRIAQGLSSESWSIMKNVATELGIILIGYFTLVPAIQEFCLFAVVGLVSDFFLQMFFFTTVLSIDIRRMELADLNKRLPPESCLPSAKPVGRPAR
Put plainly: Photo-affinity labelling / competition binding on truncated SCAP (amino acid 2 to 473) in Sf-9 cell membranes. Details: species or system hamster. On the procedure: Hamster SCAP cDNA was cut from pTK-HSV-SCAP-T7 using BgIII and Xbal and re-cloned in pTen 12 transfer vector. Recombinant baculovirus clones were produced by Quantum Biotechnologies Inc. and screened by western blots using T7-tag antibodies on Sf-9 infected cells. Sf-9 cells were grown in CCM-3 medium at 28° C. and seeded at 8×10^6 cells per 75 cm^2 flask. Four hours later they were infected with 200×10^6 pfu of baculovirus and incubated 3 days before harvest. Truncated SCAP corresponding to amino acid 2 to 473 was produced by PCR amplification with Platinium Pfx polymerase using pTK-HSV-SCAP-T7 as template and primers containing attB1 sequence followed by SEQ ID NO: 1 […] and the complement strand of attB2 sequence followed by SEQ ID NO: 2 […]. After recombination into pDonR201 vector using the Gateway cloning system, the inserts were recloned into pDest10 vector using LR recombinase. The corresponding bacmids and recombinant baculovirus were produced according the manufacturer instructions.
A competition binding assay using recombinant SCAP protein was developed in Sf-9 insect cells. […]
Infected Sf-9 cells were harvested, washed in Dulbecco phosphate buffered saline and 2×10^5 cells were incubated with test compounds and the control (^14C radio-labeled Example 2 ) for 30 min at 28° C. in 24 well plates. […] The radioactivity was detected using a Phosporlmager screen (Molecular Dynamics). […]

With `C[C@H](CCCC(C)(C)O)[C@H]1CC[C@H]2[C@@H]3CC=C4C[C@@H](O)CC[C@]4(C)[C@H]3CC[C@]12C` [25OH-cholesterol, reference compound], in the assay on HepG2 cells, the “LDL uptake (Dil-LDL fluorescence)” value is listed as “reduced it”. Also, the “LDL-receptor promoter activity (luciferase/renila ratio)” value in assay [1] (0.2 or 1 μM, 28 hours, HepG2, FIG. 2) was “represses LDL-receptor promoter activity”. Besides, the “repression of shortened LDL-receptor promoter constructs” value in assay [1] (HepG2, FIG. 3B right) was “two sequences are involved: SRE and FP-1”.

Take `COc1cc(C(C)C)ccc1C1CCN(CCCCNC(=O)c2ccc(C(=O)c3ccccc3)cc2)CC1.Cl` [Example 2, 4-(4-Benzoyl)-N-{4-[4-(4-isopropyl-2-methoxy-phenyl)-piperidin-1-yl]-butyl}-benzamide Hydrochloride]: the “photo-affinity labelling of SCAP by the radio-labelled compound” value at full length hamster SCAP (5 μM 14C-Example 2, 30 min at 28° C., 365 nm UV 10 min, FIG. 1A) is on record as “specifically labeled SCAP”. In addition, the “photo-affinity labelling of truncated SCAP by the radio-labelled compound” value in assay [2] (5 μM 14C-Example 2, membranes, FIG. 1B) is listed as “can be labelled”.

In the case of `CCOC1=CC2=C(CN(C)C)C[C@@H]3[C@H](C(O)C[C@@]4(C)[C@H]3CC[C@@]43OCOC34COCO4)[C@@]2(C)CC1` (stereo partly drawn) [Example 3, 3-Ethoxy-11-hydroxy-androst-3,5-diene-17α,17β-(1,3,6,8-tetraoxaspiro[4.4]nonan-4-yl)-6-methyldimethylamine], the “displacement of the 14C-Example 2 labelling of SCAP” value at full length hamster SCAP (100, 50, 20 μM test compound versus 5 μM 14C-Example 2, FIG. 1A) was “displaced in a dose dependant manner”. In assay [2] (200 μM or 100 μM test compound versus 5 μM 14C-Example 2, FIG. 1B), the “competition with 14C-Example 2 labelling of truncated SCAP” value is given as “competitive”.
